Results reported in patent US20160244404A1, “OPTICAL ISOMERS OF (+) AND (-)-BENZHYDRYL UREAS AND (+) AND (-)-1-[(3-CHLOROPHENYL)-PHENYL-METHYL] UREA, A PHARMACEUTICAL COMPOSITION BASED THEREON AND A METHOD FOR PRODUCING SAID OPTICAL ISOMERS” (priority 2013, published 2016).
Marks after values point to notes of the source that are not given here.

Tests used:
[1] = tested on: convulsions induced by pentylenetetrazol; experiment: Anticonvulsant potency against convulsions induced by pentylenetetrazol; type: in vivo; details: for mean convulsions score compared with that of the reference sample: all doses studied: 100 mg/kg, 150 mg/kg, 250 mg/kg; for anticonvulsive potency compared with the reference substance: on the basis of mean convulsions scores, 100, 150, 250 mg/kg; for Protection against stage 3 convulsions (% protection) / Protection against stage 4 convulsions (% protection) / Protection against stage 5 convulsions (% protection) / convulsive manifestations (points) induced by pentylenetetrazol (X ± SE): n = 10; for convulsive manifestations (points) induced by pentylenetetrazol (X ± SE): five-point scale
Description: (§1) Convulsions were induced by the administration of pentylenetetrazol. The severity (stage) of the convulsions was rated on a five-point scale. The anticonvulsant potency was rated on the basis of the substance's ability to reduce the severity of convulsions induced by the pentylenetetrazol. Halodif substances were administered intragastrically over 2 hr prior to the pentylenetetrazol. The pentylenetetrazol was administered subcutaneously. Probit analysis was used for statistical processing of the results with Student's test, ANOVA and criterion x. The differences in the results were considered statistically reliable at a significance level of p<0.05.
In the second phase the anticonvulsant potency of the reference substance was study in doses of 50 mg/kg, 100 mg/kg, 150 mg/kg, 200 mg/kg and 500 mg/kg (Table 2). The reference substance was racemic halodif. […] The halodif reference substance was used in doses of 50 mg/kg, 100 mg/kg, 150 mg/kg, 200 mg/kg and 500 mg/kg. Two hours after the halodif substance was administered to the animals the pentylenetetrazol (110 mg/kg) was administered and stage 3 and stage 5 convulsions were rated.
Samples were compared on the basis of the mean score for convulsive manifestations induced by pentylenetetrazol after administration of the samples under study.
The anticonvulsive potency of the samples of the halodif substance under study were also compared with respect to the proportion of animals in which the substance under study prevented the development of convulsions of differing severity induced by pentylenetetrazol. Table 4 presents the results expressed as the percentage of animals in which no convulsions of the specified stage developed (% protection).

[2] = tested on: animals; experiment: Establishing the convulsion-inducing dose of pentylenetetrazol; type: in vivo
Description: as §1
In the first phase of the study the optimum convulsion-inducing dose of pentylenetetrazol, CD97, which was 110 mg/kg (Table 1) was established.

[3] = sample dose 100 mg/kg 2 hours before pentylenetetrazol 110 mg/kg
[4] = sample dose 100 mg/kg 2 hours before pentylenetetrazol 110 mg/kg, listed as Sample 4/(+) isomer
[5] = sample dose 100 mg/kg intragastrically 2 hours before pentylenetetrazol 110 mg/kg
[6] = sample dose 150 mg/kg 2 hours before pentylenetetrazol 110 mg/kg
[7] = sample dose 150 mg/kg intragastrically 2 hours before pentylenetetrazol 110 mg/kg
[8] = sample dose 250 mg/kg 2 hours before pentylenetetrazol 110 mg/kg
[9] = sample dose 250 mg/kg 2 hours before pentylenetetrazol 110 mg/kg, listed as Sample 4/(+)isomer
[10] = sample dose 250 mg/kg intragastrically 2 hours before pentylenetetrazol 110 mg/kg
[11] = doses of 100 mg/kg and 150 mg/kg, stages 3 and 4
[12] = reference substance 50 mg/kg intragastrically 2 h before pentylenetetrazol 110 mg/kg
[13] = reference substance 100 mg/kg intragastrically 2 h before pentylenetetrazol 110 mg/kg
[14] = reference substance 150 mg/kg intragastrically 2 h before pentylenetetrazol 110 mg/kg
[15] = reference substance 200 mg/kg intragastrically 2 h before pentylenetetrazol 110 mg/kg
[16] = reference substance 500 mg/kg intragastrically 2 h before pentylenetetrazol 110 mg/kg
[17] = sample dose 100 mg/kg 2 hours before pentylenetetrazol 110 mg/kg, listed as Sample 2/(−) isomer
[18] = sample dose 150 mg/kg 2 hours before pentylenetetrazol 110 mg/kg, listed as Sample 2/(−) isomer
[19] = sample dose 250 mg/kg 2 hours before pentylenetetrazol 110 mg/kg, listed as Sample 2/(−) isomer
[20] = pentylenetetrazol dose 90, 5 animals in the group
[21] = pentylenetetrazol dose 100, 5 animals in the group
[22] = pentylenetetrazol dose 110, 5 animals in the group

NC(=O)N[C@H](c1ccccc1)c1cccc(Cl)c1 [Sample 3/(+) isomer, (+)-1-[(3-chlorophenyl)-phenyl-methyl]urea]
mean convulsions score compared with that of the reference sample [1]: lower convulsions score
protection against convulsions, comparison of the samples ([1]; all stages (3, 4 and 5)): greater protection
anticonvulsive potency compared with its optical antipode ([1]; in vivo): higher anticonvulsive potency
anticonvulsive potency compared with the reference substance [1]: more anticonvulsive potency
Protection against stage 3 convulsions (% protection) [1, 3]: 30%
Protection against stage 4 convulsions (% protection) [1, 3]: 60%
Protection against stage 5 convulsions (% protection) [1, 3]: 80%
Protection against stage 3 convulsions (% protection) [1, 4]: 20%
Protection against stage 4 convulsions (% protection) [1, 4]: 80%
Protection against stage 5 convulsions (% protection) [1, 4]: 100%
convulsive manifestations (points) induced by pentylenetetrazol (X ± SE) [1, 5]: 3.2 ± 0.42 points
convulsive manifestations (points) induced by pentylenetetrazol (X ± SE) ([1]; sample dose 100 mg/kg intragastrically 2 hours before pentylenetetrazol 110 mg/kg, listed as Sample 4/(+) isomer): 3.0 ± 0.21 points
Protection against stage 3 convulsions (% protection) [1, 6]: 40%
Protection against stage 4 convulsions (% protection) [1, 6]: 90%
Protection against stage 5 convulsions (% protection) [1, 6]: 100%
Protection against stage 3 convulsions (% protection) ([1]; sample dose 150 mg/kg 2 hours before pentylenetetrazol 110 mg/kg, listed as Sample 4/(+)isomer): 30%
convulsive manifestations (points) induced by pentylenetetrazol (X ± SE) [1, 7]: 2.5 ± 0.31 points
convulsive manifestations (points) induced by pentylenetetrazol (X ± SE) ([1]; sample dose 150 mg/kg intragastrically 2 hours before pentylenetetrazol 110 mg/kg, listed as Sample 4/(+) isomer): 2.6 ± 0.31 points
Protection against stage 3 convulsions (% protection) [1, 8]: 70%
Protection against stage 4 convulsions (% protection) [1, 8]: 100%
Protection against stage 5 convulsions (% protection) [1, 8]: 100%
Protection against stage 3 convulsions (% protection) [1, 9]: 50%
Protection against stage 4 convulsions (% protection) [1, 9]: 90%
convulsive manifestations (points) induced by pentylenetetrazol (X ± SE) [1, 10]: 1.9 ± 0.28 points
convulsive manifestations (points) induced by pentylenetetrazol (X ± SE) ([1]; sample dose 250 mg/kg intragastrically 2 hours before pentylenetetrazol 110 mg/kg, listed as Sample 4/(+) isomer): 2.5 ± 0.27 points

NC(=O)NC(c1ccccc1)c1cccc(Cl)c1 (racemic) [Reference sample, 1-[(3-chlorophenyl)-phenyl-methyl]urea, reference compound]
appearance of stage 5 convulsions ([1]; dose 200 mg/kg and higher, pentylenetetrazol 110 mg/kg): completely prevented
protection compared with samples 1 and 2 ((−)-isomer of halodif) [1, 11]: reliably higher protection
protection compared with samples 3 and 4 ((+)-isomer of halodif) [1, 11]: reliably lower protection
animals protected from tonic convulsions in all extremities (stage 5) ([1]; lowest dose (50 mg/kg), pentylenetetrazol 110 mg/kg): 20%
Proportion of animals with stage 3 convulsions (%, n = 5) [1, 12]: 100%
Proportion of animals with stage 5 convulsions (%, n = 5) [1, 12]: 80%
Proportion of animals with stage 3 convulsions (%, n = 5) [1, 13]: 100%
Proportion of animals with stage 5 convulsions (%, n = 5) [1, 13]: 20%
Proportion of animals with stage 3 convulsions (%, n = 5) [1, 14]: 70%
Proportion of animals with stage 5 convulsions (%, n = 5) [1, 14]: 10%
Proportion of animals with stage 3 convulsions (%, n = 5) [1, 15]: 60%
Proportion of animals with stage 5 convulsions (%, n = 5) [1, 15]: 0%
Proportion of animals with stage 3 convulsions (%, n = 5) [1, 16]: 60%
Proportion of animals with stage 5 convulsions (%, n = 5) [1, 16]: 0%
Protection against stage 3 convulsions (% protection) [1, 3]: 20%
Protection against stage 4 convulsions (% protection) [1, 3]: 50%
Protection against stage 5 convulsions (% protection) [1, 3]: 80%
convulsive manifestations (points) induced by pentylenetetrazol (X ± SE) [1, 5]: 3.5 ± 0.31 points
Protection against stage 3 convulsions (% protection) [1, 6]: 30%
Protection against stage 4 convulsions (% protection) [1, 6]: 70%
Protection against stage 5 convulsions (% protection) [1, 6]: 90%
convulsive manifestations (points) induced by pentylenetetrazol (X ± SE) [1, 7]: 2.9 ± 0.28 points
Protection against stage 3 convulsions (% protection) [1, 8]: 50%
Protection against stage 4 convulsions (% protection) [1, 8]: 80%
Protection against stage 5 convulsions (% protection) [1, 8]: 100%
convulsive manifestations (points) induced by pentylenetetrazol (X ± SE) [1, 10]: 2.6 ± 0.33 points
animals in which development of clonic convulsions (stage 3 convulsions) was prevented ([1]; starting at a dose of 150 mg/kg, pentylenetetrazol 110 mg/kg): 30-40%

NC(=O)NC(c1ccccc1)c1cccc(Cl)c1 (single isomer, unassigned; (-)) [Sample 1/(−) isomer, (−)-1-[(3-chlorophenyl)-phenyl-methyl]urea]
mean convulsions score compared with that of the reference sample [1]: higher
anticonvulsive potency compared with the reference substance [1]: less anticonvulsive potency
Protection against stage 3 convulsions (% protection) [1, 3]: 10%
Protection against stage 4 convulsions (% protection) [1, 3]: 40%
Protection against stage 5 convulsions (% protection) [1, 3]: 60* %
Protection against stage 4 convulsions (% protection) [1, 17]: 20* %
Protection against stage 5 convulsions (% protection) [1, 17]: 70%
convulsive manifestations (points) induced by pentylenetetrazol (X ± SE) [1, 5]: 3.8 ± 0.39 points
convulsive manifestations (points) induced by pentylenetetrazol (X ± SE) ([1]; sample dose 100 mg/kg intragastrically 2 hours before pentylenetetrazol 110 mg/kg, listed as Sample 2/(−) isomer): 4.1 ± 0.23 points
convulsive manifestations (points) induced by pentylenetetrazol (X ± SE) ([1]; sample dose 100 mg/kg intragastrically 2 hours before pentylenetetrazol 110 mg/kg, listed as sample 1): 3.8±0.39 points
Protection against stage 3 convulsions (% protection) [1, 6]: 20%
Protection against stage 4 convulsions (% protection) [1, 6]: 70%
Protection against stage 5 convulsions (% protection) [1, 6]: 80%
Protection against stage 3 convulsions (% protection) [1, 18]: 10%
Protection against stage 4 convulsions (% protection) [1, 18]: 40* %
Protection against stage 5 convulsions (% protection) [1, 18]: 70%
convulsive manifestations (points) induced by pentylenetetrazol (X ± SE) [1, 7]: 2.9 ± 0.29 points
convulsive manifestations (points) induced by pentylenetetrazol (X ± SE) ([1]; sample dose 150 mg/kg intragastrically 2 hours before pentylenetetrazol 110 mg/kg, listed as Sample 2/(−) isomer): 3.5 ± 0.22 points
Protection against stage 3 convulsions (% protection) [1, 8]: 40%
Protection against stage 4 convulsions (% protection) [1, 8]: 80%
Protection against stage 5 convulsions (% protection) [1, 8]: 100%
Protection against stage 3 convulsions (% protection) [1, 19]: 30%
Protection against stage 4 convulsions (% protection) [1, 19]: 70%
convulsive manifestations (points) induced by pentylenetetrazol (X ± SE) [1, 10]: 2.8 ± 0.41 points
convulsive manifestations (points) induced by pentylenetetrazol (X ± SE) ([1]; sample dose 250 mg/kg intragastrically 2 hours before pentylenetetrazol 110 mg/kg, listed as Sample 2/(−) isomer): 3.0 ± 0.37 points
convulsive manifestations (points) induced by pentylenetetrazol (X ± SE) ([1]; sample dose 250 mg/kg intragastrically 2 hours before pentylenetetrazol 110 mg/kg, listed as sample 1): 2.8±0.41 points

C1CCc2nnnn2CC1 [Pentylenetetrazol, pentylenetetrazol]
Number of animals with stage 3 convulsions ([2]; pentylenetetrazol dose 80 (no unit in table; mg/kg), 5 animals in the group): 0
Proportion of animals with stage 3 (%) ([2]; pentylenetetrazol dose 80, 5 animals in the group): 0%
Number of animals with stage 3 convulsions [2, 20]: 3
Proportion of animals with stage 3 (%) [2, 20]: 60%
Number of animals with stage 3 convulsions [2, 21]: 4
Proportion of animals with stage 3 (%) [2, 21]: 80%
Number of animals with stage 3 convulsions [2, 22]: 4
Proportion of animals with stage 3 (%) [2, 22]: 80%
optimum convulsion-inducing dose of pentylenetetrazol, CD97 ([2]; subcutaneous): 110 mg/kg
